Assay: Pre-clinical PET biodistribution
Format: in vivo
Conditions: Wistar rats, radiolabel carried on [18F]RI-OR2-TAT
Description: Wistar rats (n =3) were anaesthetised using isoflurane (induction 4% and maintained 1.5%) in 70% N2O and 30% O2 mixture. […] All scans were carried out using a Siemens Inveon® PET-CT scanner. The acquisition protocol parameters consisted of a preliminary CT scan to attain attenuation correction factors followed by a 1 h PET acquisition with time coincidence window of 3.432 ns and levels of energy discrimination set between 350 keV and 650 keV. Images were reconstructed and analysed as described elsewhere ([Boutin et al., 2015]).

Compound: O=Cc1cccnc1[18F] [[^18F]FPCA, 2-[^18F]-Fluoro-3-pyridinecarboxaldehyde]
- stability to defluorination (bone uptake of radioactivity): relatively little bone uptake

From publication PMC5034901, “Development & automation of a novel [^18F]F prosthetic group, 2-[^18F]-fluoro-3-pyridinecarboxaldehyde, and its application to an amino(oxy)-functionalised Aβ peptide” (Applied Radiation and Isotopes, 2016)
